Reference: patent US11117932B2, “Peptides for specific inhibition of Jag 1-Notch 1 pathway” (The Hong Kong Polytechnic University, priority 2018, dated 2021)
Like-named read-outs stand apart in the source and are kept apart here. Residues, ends and D or L forms follow the SMILES beside them.

What was measured:
S1-M1-80 cells [1] = experiment: cells; assay type: cell-based, human
Method: (§1) HCT-116, HCT-15, S1-M1-80, S1, L929, HEK293T-Jagged-1 were seeded in each well of a 96-well plate with a series of concentrations (a serial dilution from 1000μM to 0.5 μM) of peptides or drugs including DAPT, Topotecan at 37° C. with 5% CO2 in a humidified incubator for 3 days. Percentage of survival was determined by MTS assay as described.

S1 = experiment: cells; assay type: cell-based, human
Method: as §1

Jag1-Notch1 signalling = experiment: Co-culture Notch luciferase reporter assay, Jag1-induced; assay type: cell-based, human; settings: for inhibition of Jag1-induced Notch1 signalling, dose response: reporter assay, DAPT 50 μM; for inhibition of Jag1-induced Notch signaling compared with N1: peptides 25 μM
Method: Jag1-Notch interaction is measured using a co-culture assay with one cell line expressing the Notch ligand Jagged1 (Jag1) and a second expressing Notch (either Notch1 or Notch2). A firefly luciferase reporter plasmid with 12 upstream CBF-1 binding site was transfected into signalling-receiving cells to report on Notch signalling (FIG. 1D). Peptides were tested for their activity in inhibiting Jag1-induced Notch signalling. Complete inhibition is equivalent to the background signal seen without induction (−Jag1). […] N1 (SEQ ID NO: 10) is a 15-mer derived from the EGF-like repeat 12 of Notch1 (C467-G481). This is consistent with the structural information that EGF-like repeat 12 of Notch1 is near the MNNL domain of Jag1 (FIGS. 1B and C).
(§2) Specificity of N1 (SEQ ID NO: 10) peptide in inhibiting different Notch ligand-induced Notch signaling was investigated using in vitro co-culture assay. HEK293T or CHO cells expressing Notch ligand (either Jag1, DLL1 or DLL4) are co-cultured with Notch1- or Notch2-expressing cells. Notch1 and Notch2 signalling can be measured by either luciferase reporter assay or by the formation of NICD1 and NICD2. […] Half inhibition is reached at between 50 to 100 μM. […] This contrasts with DAPT which affects all the above interactions.
(§3) HEK-293T-Jagged-1 cells were seeded in 24-well plates in triplicate per sample group, and human HCT-116 cells were seeded in one 60 mm dish. Cells were allowed to settle, and were transfected the following day after the medium was changed to be antibiotic free. HCT-116 cells were transfected with 12×CSL-Luc and Renilla-Luc, using Lipofectamine® 3000 (Invitrogen™), according to the manufacturer's instructions. After 24 hours, HCT-116 cells were scraped and 2.5×10^4 cells in 1 mL complete medium per well were added to both 24-well plates. Peptides were treated to cells with the desired concentrations. N—[N-(3,5-difluorophenacetyl)-L-alanyl]-S-phenylglycine t-butyl ester (DAPT) was used as positive control. Cells were co-cultured for 12 hours before measure the luciferase activity. After incubation, cells were lysed with luciferase lysis buffer. Notch activity in cells expressing the 12×CSL-Luc reporter construct was measured by a luciferase assay using Dual-Luciferase® Reporter Assay System (Promega).

DLL1-Notch1 signalling = experiment: Co-culture Notch luciferase reporter assay, DLL1-induced; assay type: cell-based, human; settings: DAPT 50 μM
Method: as §2, §3

DLL4-Notch1 signalling = experiment: Co-culture Notch luciferase reporter assay, DLL4-induced; assay type: cell-based, human; settings: DAPT 50 μM
Method: as §2, §3

NICD1 [2] = experiment: NICD1 formation in HCT-116; assay type: cell-based, human; settings: peptides 100 μM
Method: (§4) This panel of peptides was also tested for their cytotoxic activities against two human colorectal cell lines (HCT-116 and HCT-15). At a concentration of 100 μM, N1 (SEQ ID NO: 10) is the only peptide that is cytotoxic to HCT-116 and HCT-15 cells (FIGS. 2B and C). Notch signaling results in the release of NICD1 from the membrane-bound Notch receptor.
(§5) The cleaved Notch1 (Val1744) (D3B8) rabbit monoclonal antibody (CST) and Notch2 (Cleaved Ala1734) rabbit monoclonal antibody at 1:1000 dilution were used to detect human Notch intracellular domain (NICD1) and Notch2 intracellular domain (NICD2), respectively. β-actin was detected using a mouse monoclonal antibody (Santa Cruz Biotechnology) at 1:3000 dilution.

NICD1 [3] = experiment: NICD1 formation in HCT-15; assay type: cell-based, human; settings: peptides 100 μM
Method: as §4, §5

Jag1-induced NICD1 = experiment: Co-culture assay, Jag1-induced NICD1 level; assay type: cell-based, human; settings: N1 at 50 μM
Method: as §2, §5

NICD2 = experiment: Co-culture assay, NICD2 formation (Jag1-Notch2); assay type: cell-based, human
Method: as §2, §5

DLL1-induced NICD1 = experiment: Co-culture assay, DLL1-induced NICD1 level; assay type: cell-based, human
Method: as §2, §5

DLL4-induced NICD1 = experiment: Co-culture assay, DLL4-induced NICD1 level; assay type: cell-based, human
Method: as §2, §5

S1-M1-80 cells [4] = experiment: Clonogenicity assay, S1-M1-80; assay type: cell-based, human; settings: for colony formation, combination with TPT: S1-M1-80, combined with 1 μM of TPT (DAPT 1 μM)
Method: The procedure for colony formation assay consists of following steps. An appropriate number of cells per well were seeded on a 6-well plate in duplicate. The number of cells for seeding should be related to the aggressiveness of the treatment. The cells were incubated for 12 hours in a CO2 incubator at 37° C. and allow cells to attach to the plate. The cells were treated with peptides or (DAPT) to required concentrations. The cells were incubated in a in a CO2 incubator at 37° C. for about 10 days until cells in control well have formed colonies which are of a substantially good size (the minimum score is 100 cells per colony). After the incubation, the medium was removed and cells were rinsed with 5 ml 1×PBS (phosphate buffered saline. pH 7.2). The cells were then fixed with 1 ml methanol at room temperature for 10 min. After fixation, the cells were stained with 0.5% crystal violet solution and incubated at room temperature for 1 h. After staining, the plates were immersed in deionized water to rinse off crystal violet and air-dried at room temperature for overnight. The dry plates were pictured with scanner. The number of colonies in each well was counted by cell counter software.

HEK-293T-Jagged-1 cells = assay type: cell-based, human
Method: as §1

in vitro = assay type: cell-based; settings: mouse
Method: as §1

NICD1 [5] = experiment: NICD1 formation in S1-M1-80; assay type: cell-based, human; settings: 10 μM
Source text: as §5

| SMILES | inhibition of Jag1-induced Notch1 signalling, dose response (Jag1-Notch1 signalling) | inhibition of DLL1-Notch1 signalling (DLL1-Notch1 signalling) | inhibition of DLL4-Notch1 signalling (DLL4-Notch1 signalling) | Jag1-induced NICD1 level (Jag1-induced NICD1) | colony formation, combination with TPT (S1-M1-80 cells [4]) [colonies/well] | colony formation (S1-M1-80 cells [4]; S1-M1-80, single agent 10 μM) [colonies/well] | IC50 (S1-M1-80 cells [1]) [µM] | IC50 (HEK-293T-Jagged-1 cells) [µM] | IC50 at 3 days (in vitro) [µM] | IC50 (S1) [µM] | inhibition of Jag1-induced Notch signaling compared with N1 (Jag1-Notch1 signalling) | also measured |
| --- | --- | --- | --- | --- | --- | --- | --- | --- | --- | --- | --- | --- |
| C[C@H](NC(=O)Cc1cc(F)cc(F)c1)C(=O)N[C@H](C(=O)OC(C)(C)C)c1ccccc1 [DAPT, N—[N-(3,5-Difluorophenacetyl)-L-alanyl]-S-phenylglycine t-butyl ester, reference compound] | can inhibit all signaling | can inhibit all signaling | can inhibit all signaling | equally effective in inhibiting both NICD1 and NICD2 | 1074 | 717 | – | – | – | – | – | IC50 (S1-M1-80 cells [1]; S1-M1-80 cells, 3 days, MTS, read-out: IC50 (μM) s1-m1-80): 17.1 ± 0.4 µM; IC50 (S1; S1 cells, 3 days, MTS, read-out: IC50 (μM) S1): > 100 µM; NICD1 formation in HCT-116 (NICD1 [2]): almost complete elimination of NICD1; NICD1 formation in HCT-15 (NICD1 [3]): almost complete elimination of NICD1; NICD2 formation (NICD2): equally effective in inhibiting both NICD1 and NICD2; DLL1-induced NICD1 level (DLL1-induced NICD1): can inhibit both; DLL4-induced NICD1 level (DLL4-induced NICD1): can inhibit both |
| CC[C@H](C)[C@H](NC(=O)[C@H](CCC(N)=O)NC(=O)[C@H](CC(=O)O)NC(=O)[C@H](CC(C)C)NC(=O)[C@H](CS)NC(=O)[C@@H](N)Cc1ccc(O)cc1)C(=O)NCC(=O)N[C@@H](CCC(=O)O)C(=O)N[C@@H](Cc1ccccc1)C(=O)N[C@@H](CCC(N)=O)C(=O)N[C@@H](CS)C(=O)N[C@H](C(=O)N[C@@H](CS)C(=O)N[C@@H](CCC(=O)O)C(=O)O)[C@@H](C)CC [N102T466Y-M479E, YCLDQIGEFQCICE] (H-YCLDQIGEFQCICE-OH; N-terminus and C-terminus assumed) | – | – | – | – | – | – | 14.9 ± 4.8 | > 100 | > 100 | – | – | – |
| CC[C@H](C)[C@H](NC(=O)[C@H](CCC(N)=O)NC(=O)[C@H](CC(=O)O)NC(=O)[C@H](CC(C)C)NC(=O)[C@@H](N)CS)C(=O)NCC(=O)N[C@@H](CCC(=O)O)C(=O)N[C@@H](Cc1ccccc1)C(=O)N[C@@H](CCC(N)=O)C(=O)N[C@@H](CS)C(=O)N[C@H](C(=O)N[C@@H](CS)C(=O)N[C@@H](CC(=O)O)C(=O)O)[C@@H](C)CC [Peptide N102M479D, CLDQIGEFQCICD] (H-CLDQIGEFQCICD-OH; N-terminus and C-terminus assumed) | inhibited Jag1-induced Notch1 signaling in dose dependent manner | did not interfere | did not interfere | significantly decreased expression level of NICD1 | – | – | 5.8 ± 0.2 | > 100 | > 100 | > 50 | biggest improvement | – |
| CC[C@H](C)[C@H](NC(=O)[C@H](CCC(N)=O)NC(=O)[C@H](CC(=O)O)NC(=O)[C@H](CC(C)C)NC(=O)[C@@H](N)CS)C(=O)NCC(=O)N[C@@H](CCC(=O)O)C(=O)N[C@@H](Cc1ccccc1)C(=O)N[C@@H](CCC(N)=O)C(=O)N[C@@H](CS)C(=O)N[C@H](C(=O)N[C@@H](CS)C(=O)N[C@@H](CCC(=O)O)C(=O)O)[C@@H](C)CC [Peptide N102M479E, CLDQIGEFQCICE] (H-CLDQIGEFQCICE-OH; N-terminus and C-terminus assumed) | inhibited Jag1-induced Notch1 signaling in dose dependent manner | did not interfere | did not interfere | significantly decreased expression level of NICD1 | 581 | 84 | 4.9 ± 0.2 | > 100 | > 100 | > 30 | biggest improvement | NICD1 formation in S1-M1-80 cells (NICD1 [5]): totally suppress NICD1 formation; colony formation of S1-M1-80, dose response (S1-M1-80 cells [4]): effectively reduced colony formation; colony formation of S1-M1-80 (S1-M1-80 cells [4]; 1 μM): reduced by half; more potent than DAPT (colony formation) (S1-M1-80 cells [4]; 1 μM): 14%; colony formation of S1-M1-80 (S1-M1-80 cells [4]; 5 μM): almost eliminated the formation of all colonies; colony formation of S1-M1-80 (S1-M1-80 cells [4]; 10 μM): completely eliminated the formation of colonies; colony formation (S1-M1-80 cells [4]; S1-M1-80, single agent 1 μM): 925 colonies/well; effect with topotecan on colony formation of S1-M1-80 (S1-M1-80 cells [4]; TPT plus N102M479E): synergistic; increase of potency over TPT-DAPT combination (colony formation) (S1-M1-80 cells [4]; combined with 1 μM of TPT): 19% |
